These results are taken from patent publication US20200131176A1, “SELECTIVE INHIBITORS OF CLINICALLY IMPORTANT MUTANTS OF THE EGFR TYROSINE KINASE” (CS Pharmatech Limited, priority 2017, published 2020).

The test system of one data set is A431 cells. Description: A431 inhibition assay (cell proliferation, CellTiter-Glo, 72 h). The following applies: Homo sapiens, A-431, 72 h, cellular proliferation, wild type EGFR, read-out: A431 IC50 (nM) WT. Type of data set: cell-based, human. A general note: ATP-based viability assays read luminescence as a measure of living cells.
In another data set the test system is PC-9 cells. Kind of data set: PC-9 growth inhibition assay (cell proliferation, CellTiter-Glo, 72 h). Type of data set: cell-based, human. The following applies: Homo sapiens, PC-9, 72 h, cellular proliferation, PC9 cells, single mutant EGFR, read-out: PC9 IC50 (nM) SM.
The test system of a further data set is H1975 cells. Kind of data set: H1975 inhibition assay (cell proliferation, CellTiter-Glo, 72 h). Type of data set: cell-based, human. Particulars: Homo sapiens, NCI-H1975, 72 h, cellular proliferation, double mutant EGFR, read-out: NCI-H1975 IC50 (nM) DM.
The nature of data set [1]: Mouse in vivo PK study. The following applies: male CD1 mice, 1 mg/kg IV; for F: 10 mg/kg PO; for AUC / clearance / half-life: mouse, plasma; for half-life: read-out: T1/2 (IV) (converted). Here is the method: To determine the drug concentration in plasma of the compounds of the present disclosure following intravenous and oral administration in male CD 1 Mice, pharmacokinetic profile and PK parameters were obtained.
Test animals: healthy male CD1 mice (body weight 20-30 g, 18 mice, free access to food and water), provided by Sibeifu laboratory. […]
Samples collection: the healthy animals were used, weighed the bodyweight and marked at tail and cage card prior to dosing. Blood samples (0.03 mL per time point) were collected from dorsal metatarsal vein at 0.083, 0.25, 0.5, 1, 2, 4, 8, 24 h post dose for IV group and at 0.25, 0.5, 1, 2, 4, 8, 24 h post dose for PO group, the terminal time point was collected from heart (˜0.3 mL). The blood samples were put into the tube with heparin-Na coated and then put on the cold box, centrifuged at 4° C. 4000 g, 5 minutes immediately after collecting all samples per time point to get plasma. The plasma samples were stored in a freezer at −75±15° C. prior to analysis.
The drug concentration was determined by LC/MS/MS method, and the PK parameters were observed as follows.

Data set [2] is described as follows: Mouse in vivo PK study. The following applies: mouse, plasma, male CD1 mice, 10 mg/kg PO; for half-life: read-out: T1/2 (PO) (converted).
The target of data set [3] is T1, Exon 19 deletion EGFR (activating single mutant) in PC-9 cells (Homo sapiens, UniProt P00533, DEL746-750).
T1 construct: cellular phosphorylation of endogenous p-EGFR; host or cells: PC9 (PC-9) human lung cell line
Kind of data set: Exon 19 deletion EGFR PC-9 cellular autophosphorylation assay (p-EGFR ELISA). The following applies: PC9, 2 h treatment, read-out: SM (PC9) IC50. It is filed as cell-based. (An ELISA detects its analyte on a solid surface through an enzyme-linked reagent.)
Description: The human lung cell line PC9 (Exon 19 deletion EGFR) were obtained from the American type Culture Collection. […] Cells were grown in a humidified incubator at 37° C. with 5% CO2, Assays to measure cellular phosphorylation of endogenous p-EGFR in cell Iysates were carried out according to the protocol described in the R&D Systems DuoSet IC Human Phospho-EGF R ELISA (R&D Systems catalogue number # DYCI095). 40 μL of cells were seeded (10000 cells/well) in growth medium in Coming black, clear-bottomed 384-well plates and incubated at 37° C. with 5% CO2 overnight. […] Plates were incubated for a further 2 h, then following aspiration of medium, 40 μL× lysis buffer is added to each well. Greiner black high bind 384 well plates were coated with capture antibody and then blocked with 3% BSA. Following removal of block, 15 μL of lysate are transferred to the Greiner black high bind 384 well plates and incubated for 2 hours. Following aspiration and washing of the plates with PBS, 20 μL of detection antibody were added and incubated for 2 hours. […] The data obtained with each compound are exported into a suitable software package (such as Origin) to perform curve fitting analysis.

Data set [4] deals with T2, L858R/T790M double mutant EGFR in H1975 cells (Homo sapiens, UniProt P00533, L858R/T790M).
T2 construct: endogenous in cells; host or cells: H1975 cells
Description: L858R/T790M double mutant H1975 autophosphorylation inhibition assay (ELISA). The following applies: cellular EGFR autophosphorylation, H1975, 2 h treatment; read-out: DM (H1975) IC50. It is filed as cell-based.

The target in data set [5] is Wild type EGFR in A431 cells (Homo sapiens, UniProt P00533). The following applies: WT (A431) IC50 nM, cellular EGFR autophosphorylation, A431, 2 h treatment then EGF stimulation 10 min.
Data set [6] deals with hERG channel (HEK 293 cell line stably expressing hERG channel) (Homo sapiens, UniProt Q12809). Description: cell-based.

Values joined by “and” are separate entries in the source; they are usually repeats but may differ in a detail not shown here. Identical values can stand only once. Counter-ions that a name gives are not always drawn. Like-named read-outs stand apart in the source and are kept apart here.

T2 sequence (P00533 25-1210 T790M/L858R): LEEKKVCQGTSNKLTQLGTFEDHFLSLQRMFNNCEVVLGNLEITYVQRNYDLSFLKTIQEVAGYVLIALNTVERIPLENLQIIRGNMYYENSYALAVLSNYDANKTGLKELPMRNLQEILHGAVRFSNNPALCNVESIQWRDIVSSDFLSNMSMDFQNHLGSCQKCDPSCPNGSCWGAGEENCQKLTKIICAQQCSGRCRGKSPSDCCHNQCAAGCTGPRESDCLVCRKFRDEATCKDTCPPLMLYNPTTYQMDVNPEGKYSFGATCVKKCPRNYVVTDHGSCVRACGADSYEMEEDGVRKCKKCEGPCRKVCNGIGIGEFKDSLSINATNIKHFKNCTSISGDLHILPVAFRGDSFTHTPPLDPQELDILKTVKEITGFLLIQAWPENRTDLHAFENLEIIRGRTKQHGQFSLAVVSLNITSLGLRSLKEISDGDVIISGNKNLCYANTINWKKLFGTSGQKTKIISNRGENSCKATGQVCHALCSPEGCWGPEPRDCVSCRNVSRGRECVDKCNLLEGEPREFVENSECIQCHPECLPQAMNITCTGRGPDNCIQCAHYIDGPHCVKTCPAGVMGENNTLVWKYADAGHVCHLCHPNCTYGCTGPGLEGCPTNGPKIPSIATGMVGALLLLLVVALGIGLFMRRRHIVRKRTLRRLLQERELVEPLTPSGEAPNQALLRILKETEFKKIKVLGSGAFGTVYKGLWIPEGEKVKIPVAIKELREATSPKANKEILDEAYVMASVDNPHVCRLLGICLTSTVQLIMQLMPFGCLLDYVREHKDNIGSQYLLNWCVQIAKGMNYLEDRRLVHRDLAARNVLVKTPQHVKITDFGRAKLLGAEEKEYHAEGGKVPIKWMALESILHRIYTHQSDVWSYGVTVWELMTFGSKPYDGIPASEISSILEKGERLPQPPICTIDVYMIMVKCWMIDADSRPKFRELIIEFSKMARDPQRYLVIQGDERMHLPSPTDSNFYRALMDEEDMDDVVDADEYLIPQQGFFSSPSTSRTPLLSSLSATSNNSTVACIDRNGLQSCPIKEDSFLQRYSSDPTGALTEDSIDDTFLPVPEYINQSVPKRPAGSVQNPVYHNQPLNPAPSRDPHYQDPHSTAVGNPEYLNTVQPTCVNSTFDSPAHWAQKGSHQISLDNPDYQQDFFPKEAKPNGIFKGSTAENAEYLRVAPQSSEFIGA
Sequence of Wild type EGFR in A431 cells (P00533 25-1210): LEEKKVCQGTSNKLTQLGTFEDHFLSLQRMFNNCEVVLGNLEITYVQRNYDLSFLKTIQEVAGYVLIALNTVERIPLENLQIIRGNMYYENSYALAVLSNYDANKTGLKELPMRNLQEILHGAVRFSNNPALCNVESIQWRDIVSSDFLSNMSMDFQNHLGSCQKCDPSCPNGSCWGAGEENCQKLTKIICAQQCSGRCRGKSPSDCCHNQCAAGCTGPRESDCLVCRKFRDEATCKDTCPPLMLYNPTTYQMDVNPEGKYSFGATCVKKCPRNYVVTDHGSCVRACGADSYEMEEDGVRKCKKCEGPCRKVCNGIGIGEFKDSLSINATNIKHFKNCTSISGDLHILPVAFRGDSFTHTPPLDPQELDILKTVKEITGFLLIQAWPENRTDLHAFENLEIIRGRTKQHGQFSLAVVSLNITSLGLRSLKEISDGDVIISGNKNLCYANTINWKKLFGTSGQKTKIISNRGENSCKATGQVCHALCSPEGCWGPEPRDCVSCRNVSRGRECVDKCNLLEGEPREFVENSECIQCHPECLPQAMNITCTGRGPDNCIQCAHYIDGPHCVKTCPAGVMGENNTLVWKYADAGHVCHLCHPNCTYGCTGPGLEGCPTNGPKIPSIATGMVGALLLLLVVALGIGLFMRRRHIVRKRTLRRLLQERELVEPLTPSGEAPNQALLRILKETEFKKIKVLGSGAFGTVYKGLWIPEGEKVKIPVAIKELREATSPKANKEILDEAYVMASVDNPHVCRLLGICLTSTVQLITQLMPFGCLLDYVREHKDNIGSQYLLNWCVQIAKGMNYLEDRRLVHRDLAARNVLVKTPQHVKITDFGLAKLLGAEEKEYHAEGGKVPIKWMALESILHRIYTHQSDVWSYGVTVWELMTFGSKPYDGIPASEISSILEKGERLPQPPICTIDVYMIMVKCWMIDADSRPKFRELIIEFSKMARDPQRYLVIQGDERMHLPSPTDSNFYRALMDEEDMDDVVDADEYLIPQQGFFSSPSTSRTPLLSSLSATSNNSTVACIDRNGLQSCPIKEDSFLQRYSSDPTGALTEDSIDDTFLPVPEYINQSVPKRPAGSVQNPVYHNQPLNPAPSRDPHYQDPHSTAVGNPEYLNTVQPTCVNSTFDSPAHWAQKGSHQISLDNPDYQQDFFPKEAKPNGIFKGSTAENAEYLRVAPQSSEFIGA
T1 sequence (P00533 with tags, fused parts or gaps DEL746-750): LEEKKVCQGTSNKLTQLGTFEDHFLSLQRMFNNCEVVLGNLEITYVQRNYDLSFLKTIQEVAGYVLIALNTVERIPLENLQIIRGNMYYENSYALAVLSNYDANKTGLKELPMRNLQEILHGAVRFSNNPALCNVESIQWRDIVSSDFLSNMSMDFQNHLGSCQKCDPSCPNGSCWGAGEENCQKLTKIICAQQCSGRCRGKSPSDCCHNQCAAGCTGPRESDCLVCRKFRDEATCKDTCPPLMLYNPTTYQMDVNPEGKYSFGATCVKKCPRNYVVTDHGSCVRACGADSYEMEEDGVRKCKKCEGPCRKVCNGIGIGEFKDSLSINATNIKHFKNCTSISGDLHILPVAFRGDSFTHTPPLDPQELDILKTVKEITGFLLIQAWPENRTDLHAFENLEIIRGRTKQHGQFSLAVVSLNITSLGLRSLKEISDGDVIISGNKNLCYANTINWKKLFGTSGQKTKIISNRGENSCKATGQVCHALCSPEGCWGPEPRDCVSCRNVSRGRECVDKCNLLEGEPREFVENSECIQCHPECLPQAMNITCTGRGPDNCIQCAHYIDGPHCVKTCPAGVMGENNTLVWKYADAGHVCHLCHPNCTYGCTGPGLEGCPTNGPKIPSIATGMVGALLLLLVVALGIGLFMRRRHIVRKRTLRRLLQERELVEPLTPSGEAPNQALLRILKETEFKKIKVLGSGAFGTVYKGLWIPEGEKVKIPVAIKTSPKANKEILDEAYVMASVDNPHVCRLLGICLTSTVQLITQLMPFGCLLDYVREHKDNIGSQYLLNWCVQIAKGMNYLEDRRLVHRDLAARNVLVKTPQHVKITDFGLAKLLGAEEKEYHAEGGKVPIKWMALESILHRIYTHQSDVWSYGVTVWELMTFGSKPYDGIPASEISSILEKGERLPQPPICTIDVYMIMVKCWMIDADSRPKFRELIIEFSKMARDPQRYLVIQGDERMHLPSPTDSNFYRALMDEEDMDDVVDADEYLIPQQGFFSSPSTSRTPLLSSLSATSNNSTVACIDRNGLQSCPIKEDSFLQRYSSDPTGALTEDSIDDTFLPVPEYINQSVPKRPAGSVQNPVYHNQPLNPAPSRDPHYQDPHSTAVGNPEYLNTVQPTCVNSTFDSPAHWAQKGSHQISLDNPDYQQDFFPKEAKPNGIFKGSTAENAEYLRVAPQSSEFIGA
Sequence of hERG channel (HEK 293 cell line stably expressing hERG channel) (Q12809 whole entry): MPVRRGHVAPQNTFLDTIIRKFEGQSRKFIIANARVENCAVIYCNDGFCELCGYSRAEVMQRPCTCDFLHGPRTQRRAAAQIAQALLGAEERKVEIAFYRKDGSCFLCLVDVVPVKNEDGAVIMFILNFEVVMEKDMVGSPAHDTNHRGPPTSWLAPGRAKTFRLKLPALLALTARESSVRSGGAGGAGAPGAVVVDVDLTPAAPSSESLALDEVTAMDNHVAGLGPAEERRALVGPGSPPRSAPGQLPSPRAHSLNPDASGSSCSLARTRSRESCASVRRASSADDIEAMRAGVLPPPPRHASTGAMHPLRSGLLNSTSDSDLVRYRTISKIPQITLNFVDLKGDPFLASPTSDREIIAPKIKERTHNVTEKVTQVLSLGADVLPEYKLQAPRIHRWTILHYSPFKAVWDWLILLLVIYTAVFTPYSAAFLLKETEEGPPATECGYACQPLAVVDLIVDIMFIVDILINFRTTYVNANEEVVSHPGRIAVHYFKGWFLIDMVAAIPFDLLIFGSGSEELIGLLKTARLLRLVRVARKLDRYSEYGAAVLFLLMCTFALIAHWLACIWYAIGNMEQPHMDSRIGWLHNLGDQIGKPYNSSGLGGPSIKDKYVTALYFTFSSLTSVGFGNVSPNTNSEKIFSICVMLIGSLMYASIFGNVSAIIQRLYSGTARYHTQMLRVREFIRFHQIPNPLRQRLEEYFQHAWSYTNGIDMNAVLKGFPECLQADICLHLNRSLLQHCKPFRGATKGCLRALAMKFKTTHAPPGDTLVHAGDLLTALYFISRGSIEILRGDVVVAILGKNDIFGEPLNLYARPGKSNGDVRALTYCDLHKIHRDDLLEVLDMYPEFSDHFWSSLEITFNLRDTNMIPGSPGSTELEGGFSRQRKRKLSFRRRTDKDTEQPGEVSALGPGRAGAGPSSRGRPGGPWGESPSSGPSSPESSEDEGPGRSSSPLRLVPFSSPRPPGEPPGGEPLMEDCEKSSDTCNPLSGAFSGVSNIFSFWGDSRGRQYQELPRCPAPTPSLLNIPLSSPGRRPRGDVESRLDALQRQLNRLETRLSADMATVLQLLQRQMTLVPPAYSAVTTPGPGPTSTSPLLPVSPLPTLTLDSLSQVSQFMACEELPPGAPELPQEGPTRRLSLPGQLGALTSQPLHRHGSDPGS

`C=CC(=O)Nc1cc(Nc2nccc(-c3cccc4c3ccn4C)n2)c(OC)cc1N(C)CCN(C)C` [Example 25, N-(2-((2-(dimethylamino)ethyl)(methyl)amino)-4-methoxy-5-((4-(1-methyl-1H-indol-4-yl)pyrimidin-2-yl)amino)phenyl)acrylamide]: the IC50 in the data set with A431 cells is 1130 nM; in the data set on PC-9 cells, 16.2 nM; with H1975 cells, 12.6 nM.
Consider `[2H]C([2H])([2H])N(CCN(C)c1cc(OC)c(Nc2nccc(-c3cc(C#N)c4c(c3)c(C)cn4C)n2)cc1NC(=O)C=C)C([2H])([2H])[2H]` [Example 27, N-(2-((2-(Bis(methyl-d3)amino)ethyl)(methyl)amino)-5-((4-(7-cyano-1,3-dimethyl-1H-indol-5-yl)pyrimidin-2-yl)amino)-4-methoxyphenyl)acrylamide mesylate], for which, in the data set “Mouse in vivo PK study [1]”, the F was found to be 31.4%, the AUC worked out at 297 ng·h/mL, the clearance was found to be 60.7 mL/min/kg and the half-life is 1.76 h. In addition, in the data set “Mouse in vivo PK study [2]”, the AUC was 1040 ng·h/mL, the concentration peaked (Cmax) at 99 ng/mL and the half-life is 3.65 h. In addition, in the data set with H1975 cells, the half-maximal inhibitory concentration (IC50) was determined as 2.26 nM.
For `C=CC(=O)Nc1cc(Nc2nccc(-n3nc(NCC)c4ncccc43)n2)c(OC(F)F)cc1N(C)CCN(C)C` [Example 20, N-(4-(Difluoromethoxy)-2-((2-(dimethylamino)ethyl)(methyl)amino)-5-((4-(3-(ethylamino)-1H-pyrazolo[4,3-b]pyridin-1-yl)pyrimidin-2-yl)amino)phenyl)acrylamide], the IC50 with A431 cells was determined as 97.6 nM; in data set [3] it was 1.38 nM; in the data set with PC-9 cells it was 0.91 nM; with H1975 cells, 1.08 nM; in data set [4], 1.07 nM; in [5] it was 19 nM. Also, the IC50 in data set [6] is 500 nM.
Regarding `C=CC(=O)Nc1cc(Nc2nccc(-n3nc(OC)c4ccccc43)n2)c(OC)cc1N(C)CCN(C)C` [Example 8, N-(2-((2-(Dimethylamino)ethyl)(methyl)amino)-4-methoxy-5-((4-(3-methoxy-1H-indazol-1-yl)pyrimidin-2-yl)amino)phenyl)acrylamide], the IC50 was 1800 nM with A431 cells; 27.6 nM and 29.4 nM in [3]; 18.6 nM in the data set on PC-9 cells; 11.6 nM with H1975 cells; 20.7 nM and 38.8 nM in data set [4]; 327 nM and 464 nM in [5]. This compound also returned a concentration for half-maximal inhibition (IC50) in data set [6] of 2230 nM.
As for `C=CC(=O)Nc1cc(Nc2nccc(-c3cnc4c(c3)c(C)cn4C)n2)c(OC)cc1N(C)CCN(C)C` [Example 11, N-(5-((4-(1,3-Dimethyl-1H-pyrrolo[2,3-b]pyridin-5-yl)pyrimidin-2-yl)amino)-2-((2-(dimethylamino)ethyl)(methyl)amino)-4-methoxyphenyl) acrylamide], the IC50 with A431 cells was 2530 nM. For the same compound, in the data set “Mouse in vivo PK study [1]”, the F amounted to 29.3%, the AUC was determined as 153 ng·h/mL, the clearance is 114 mL/min/kg and the half-life was 1.1 h. In the data set “Mouse in vivo PK study [2]”, the exposure (AUC) was found to be 641 ng·h/mL, the Cmax was 97 ng/mL and the half-life is 5.06 h. In addition, the IC50 in the data set on PC-9 cells is 7.73 nM. For the same compound, the IC50 in the data set on H1975 cells amounted to 6.51 nM. The compound further came in with an IC50 in data set [6] of 5780 nM.
Regarding `C=CC(=O)Nc1cc(Nc2nccc(-c3cccc4c3cnn4C)n2)c(OC)cc1N(C)CCN(C)C` [Example 10, N-(2-((2-(Dimethylamino)ethyl)(methyl)amino)-4-methoxy-5-((4-(1-methyl-1H-indazol-4-yl)pyrimidin-2-yl)amino)phenyl)acrylamide], the IC50 in the data set with A431 cells stood at 695 nM; with PC-9 cells, 16.5 nM; in the data set with H1975 cells, 12.7 nM.
In the case of `C=CC(=O)Nc1cc(Nc2nccc(-c3cnc4c(c3)c(Cl)cn4C)n2)c(OC)cc1N(C)CCN(C)C` [Example 13, N-(5-((4-(3-Chloro-1-methyl-1H-pyrrolo[2,3-b]pyridin-5-yl)pyrimidin-2-yl)amino)-2-((2-(dimethylamino)ethyl)(methyl)amino)-4-methoxyphenyl)acrylamide], in the data set “Mouse in vivo PK study [1]”, the F worked out at 17.3%, the AUC was determined as 169 ng·h/mL, the clearance is 99 mL/min/kg and the half-life was 1.52 h. Further, in the data set “Mouse in vivo PK study [2]”, the area under the curve (AUC) was determined as 486 ng·h/mL, the Cmax was determined as 63.5 ng/mL and the half-life was 6.1 h. Also, the IC50 in the data set on PC-9 cells came out at 4.64 nM. In addition, in the data set on H1975 cells, the IC50 amounted to 2.98 nM. In data set [6], this compound registered an IC50 of 1650 nM.
With `C=CC(=O)Nc1cc(Nc2nccc(-c3cc4c(C)c[nH]c4c(C#N)n3)n2)c(OC)cc1N(C)CCN(C)C` [Example 3, N-(5-((4-(7-Cyano-3-methyl-1H-pyrrolo[2,3-c]pyridin-5-yl)pyrimidin-2-yl)amino)-2-((2-(dimethylamino)ethyl)(methyl)amino)-4-methoxyphenyl)acryl amide], the IC50 is 1380 nM in the data set on A431 cells; 5.15 nM in [3]; 4.15 nM in the data set on PC-9 cells; 4.38 nM in the data set on H1975 cells; 2.16 nM in data set [4]; 63.1 nM in data set [5]. This compound also registered an IC50 in data set [6] of 858 nM.
In the case of `C=CC(=O)Nc1cc(Nc2nccc(-c3cc(C#N)c4c(c3)c(C)cn4C)n2)c(OC)cc1N(C)CCNC` [Example 29, N-(5-((4-(7-Cyano-1,3-dimethyl-1H-indol-5-yl)pyrimidin-2-yl)amino)-4-methoxy-2-(methyl(2-(methylamino)ethyl)amino)phenyl)acrylamide], the concentration for half-maximal inhibition (IC50) stood at 1370 nM in the data set with A431 cells, 51.9 nM in the data set on PC-9 cells and 23.6 nM with H1975 cells.
On to `C=CC(=O)Nc1cc(Nc2nccc(-n3nc(NC)c4cc(Cl)sc43)n2)c(OC)cc1N(C)CCN(C)C` [Example 24, N-(5-((4-(5-chloro-3-(methylamino)-1H-thieno[2,3-c]pyrazol-1-yl)pyrimidin-2-yl)amino)-2-((2-(dimethylamino)ethyl)(methyl)amino)-4-methoxyphenyl)acrylamide], for which the IC50 in the data set with A431 cells was 217 nM; in the data set with PC-9 cells it was 1.57 nM; in the data set on H1975 cells, 2.43 nM.
With `C=CC(=O)Nc1cc(Nc2nccc(-n3nc(NC)c4ccsc43)n2)c(OC)cc1N(C)CCN(C)C` [Example 23, N-(2-((2-(dimethylamino)ethyl)(methyl)amino)-4-methoxy-5-((4-(3-(methylamino)-1H-thieno[2,3-c]pyrazol-1-yl)pyrimidin-2-yl)amino)phenyl)acrylamide], the IC50 came to 566 nM with A431 cells, 3.87 nM in the data set on PC-9 cells and 7.35 nM with H1975 cells.
The matching figures for `C=CC(=O)Nc1cc(Nc2nccc(-n3nc(N(C)C)c4cnc(C)cc43)n2)c(OC)cc1N(C)CCN(C)C` [Example 1, N-(5-((4-(3-(Dimethylamino)-6-methyl-1H-pyrazolo[4,3-c]pyridin-1-yl)pyrimidin-2-yl)amino)-2-((2-(dimethylamino)ethyl)(methyl)amino)-4-methoxyphenyl)acrylamide]: 2140 nM, 9.24 nM and 11.4 nM.
Regarding `C=CC(=O)Nc1cc(Nc2nccc(-c3cc(C#N)c4c(c3)c(C)cn4C)n2)c(OC)cc1NCCN(C)C` [Example 28, N-(5-((4-(7-cyano-1,3-dimethyl-1H-indol-5-yl)pyrimidin-2-yl)amino)-2-((2-(dimethylamino)ethyl)amino)-4-methoxyphenyl)acrylamide], the IC50 was 912 nM in the data set on A431 cells, 81.4 nM in the data set with PC-9 cells and 13.6 nM in the data set with H1975 cells.
For the compound `C=CC(=O)Nc1cc(Nc2nccc(-c3ccc4c(c3)c(C)cn4C)n2)c(OC)cc1N(C)CCN(C)C` [Example 12, N-(5-((4-(1,3-Dimethyl-1H-indol-5-yl)pyrimidin-2-yl)amino)-2-((2-(dimethylamino)ethyl)(methyl)amino)-4-methoxyphenyl)acrylamide], the half-inhibitory concentration (IC50) in the data set on A431 cells was 2430 nM; in [3] it was 11.8 nM; in the data set with PC-9 cells, 19.1 nM; with H1975 cells, 16.8 nM; in [4], 7.73 nM; in [5] it was 63.6 nM. The IC50 in data set [6] worked out at 4080 nM.

By IC50 is commonly meant the concentration that gives 50% inhibition. Usually AUC stands for the area under the concentration-time curve, a measure of exposure. In general, clearance refers to a measure of how efficiently the substance is removed, as volume per time. Low values mean inefficient removal, high ones efficient removal. What is called Cmax is the highest concentration seen after dosing.
